Assay results as given in patent US20230257374A1, “NOVEL KRAS G12C PROTEIN INHIBITOR, PREPARATION METHOD THEREFOR, AND USE THEREOF” (INNOVENT BIOLOGICS (SUZHOU) CO., LTD., priority 2019, published 2023).

How the values were obtained:
KRAS G12C protein = target: T1, KRAS G12C protein (Homo sapiens, UniProt P01116, G12C); assay: ERK protein phosphorylation assay (p-ERK) in H358 cells; format: cell-based; set-up: scale not given here; details: H358 cells expressing KRAS G12C protein, 3 h incubation with compound; read-out: IC50, inhibiting phosphorylation of KRAS G12C protein-mediated downstream signaling (p-ERK)
T1 construct: H358 cells (ATCC, CRL-5807) expressing KRAS G12C protein; host or cells: H358 (NCI-H358) cells
Method in brief: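 After paraformaldehyde fixation and methanol permeabilization, phospho-ERK detected by immunofluorescence read on an Odyssey CLx imager.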

[1] = test system: H1373 cell line (K-RAS G12C); assay: cells; format: cell-based; details: for IC50: Homo sapiens, NCI-H1373, 96 h, 3D culture, CellTiter-Glo 3D, read on day 4, read-out: H1373 (K-RAS G12C) IC50; for Selectivity (fold number of mutant vs. wild type): PC-9 IC50 vs. H1373 IC50
Protocol: (§1) a) On day 1, seed cells were placed in T75 a flask. b) On day 3, the medium was taken out and washed once with DPBS. c) Cells were trypsinized with 2 mL TrypLE™ Express enzyme at room temperature (RT) or 37° C. until cells detached. d) 5 mL of fresh medium was added to suspend the cells, and then the suspension was centrifuged at 1000 rpm and room temperature for 5 min. e) The supernatant was discarded, and the cells were resuspended in 5 mL of fresh medium and counted using Countess™ H. f) The cells were seeded back into the T75 flask for further culture or placed into an assay plate for 3D cell proliferation assay.
(§2) The cells were seeded at a density of 600 cells/well in a 384-well plate with 40 μL of medium per well and a final DMSO concentration of 0.5%. b) On day 4, a 3D CTG reagent was added to each well, followed by shaking at room temperature for 1 h. c) The signals were recorded using Envision.
(§3) a) Robustness was examined using 0.5% DMSO and data of blank control medium: H=mean (DMSO); L=mean (medium); SD (H)=STDEV (DMSO); SD (L)=STDEV (medium);
(§4) Y=peak valley value+(peak top value−peak valley value)/(1+10^((Log IC50−X)×HillSlope));
(§5) X: logarithm of compound concentration; Y: percent inhibition (% inhibition); Peak top and peak valley values: the plateau period units are the same as Y; log IC50: the same logarithmic unit as X; HillSlope: slope coefficient or Hill slope.

[2] = test system: MIA PaCa-2 cell line (K-RAS G12C); assay: cells; format: cell-based; details: for IC50: Homo sapiens, MIA PaCa-2, 96 h, 3D culture, CellTiter-Glo 3D, read on day 4, read-out: MIA PaCa-2 (K-RAS G12C) IC50; for Selectivity (fold number of mutant vs. wild type): PC-9 IC50 vs. MIA PaCa-2 IC50
Protocol: as §1, §2, §3, §4, §5

[3] = test system: PC-9 cell line (K-RAS wild type); assay: cells; format: cell-based; details: Homo sapiens, PC-9, 96 h; 3D culture, CellTiter-Glo 3D, read on day 4
Protocol: as §1, §2, §3, §4, §5

[4] = test system: NCI-H358 tumor (K-RAS G12C mutation); format: in vivo, BALB/c nude mice; details: for Day 0 Tumor volume (mm^3) Vaverage ± SEM: Day 0 (at grouping, before administration), 15 mg/kg PO QD group; for Day 21 Tumor volume (mm^3) Vaverage ± SEM / Tumor inhibition rate TGI (%) / Tumor regression: Day 21, 15 mg/kg PO QD; for Tumor regression: animals with regression / group of 8; for Day 0 Body weight (g) Waverage ± SEM: mouse, in vivo, po, 15 mg/kg
Protocol: The cells were digested with trypsin-EDTA twice a week for passaging as per conventional practice. When the cell saturation reached 80%-90% and a required amount was achieved, the cells were collected and counted for later use. […] 5% DMSO/5% Solutol/90% water was used as a blank control. 3) Tumor inoculation and drug administration: BALB/c nude mice, female, 6-8 weeks old, weighing 18-20 g. The experiment started after 3-7 days of adaptive feeding. 0.1 mL of NCI-H358 cells (5×10^6 cells) were inoculated subcutaneously on the right back of each mouse. The mice were grouped for administration when the average tumor volume reached approximately 150 mm^3. The animals were weighed before administration and the tumor volume was measured. Grouping was randomly performed according to the tumor volume.
Animals were monitored daily for health and death, and routine examinations include observation of the effect of tumor growth and drug treatment on the daily performance of the animals, such as behavioral activities, food and water intake, weight changes (measured once every other day), appearance, or other abnormal conditions. Animal mortality and side effects within each group were recorded based on the number of animals in the group.
Tumor diameters were measured 2-3 times weekly using a vernier caliper.
The tumor volume was calculated as follows: […]
where a and b represent the long and short diameters of the tumor, respectively.
The anti-tumor therapeutic effect of the compound was evaluated by tumor growth inhibition rate TGI (%) or relative tumor proliferation rate T/C (%).
TGI (%) was calculated as follows: […]
T/C (%) was calculated as follows: […]
where TRTV represents the relative tumor volume of the treatment group; CRTV represents the relative tumor volume of the solvent control group.
Based on the results of tumor measurement, the relative tumor volume (RTV) was calculated as follows: […]
where V0 represents the average tumor volume measured at the time of grouping and administration (i.e., d0), Vt represents the average tumor volume in a certain measurement, and TRTV and CRTV take the data on the same day.
After the completion of the experiment, tumors were weighed, and the percentage of Tweight/Cweight was calculated, where Tweight and Cweight represent the tumor weights of the treatment group and the solvent control group, respectively.
Data calculation and analysis: T test was employed for comparison between two groups. One-way ANOVA was employed for comparison between three or more groups. If there is a significant difference in F-values, multiple comparisons should be made after ANOVA analysis. All data analyses were performed with SPSS 17.0. p<0.05 was defined as a significant difference.

[5] = Stability test in human plasma; details: for Remaining percentage (%) 0 min / Remaining percentage (%) 30 min / Remaining percentage (%) 60 min / Remaining percentage (%) 120 min / Remaining percentage (%) 180 min / Remaining percentage (%) 240 min: human plasma, 37° C.; for half-life at 5 μM: human, plasma

T1 sequence (P01116 1-188 isoform P01116-2 G12C): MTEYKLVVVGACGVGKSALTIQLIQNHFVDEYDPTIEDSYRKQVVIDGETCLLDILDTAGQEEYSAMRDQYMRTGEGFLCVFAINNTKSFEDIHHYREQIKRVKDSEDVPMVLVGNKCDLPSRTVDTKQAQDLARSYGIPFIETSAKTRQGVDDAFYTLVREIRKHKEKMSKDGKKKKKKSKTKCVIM

IC50 (KRAS G12C protein) [nM] | IC50 [1] [nM] | IC50 [2] [nM] | IC50 [3] [nM] | Remaining percentage (%) 0 min [5] [%] | Remaining percentage (%) 30 min [5] [%] | Remaining percentage (%) 60 min [5] [%] | Remaining percentage (%) 120 min [5] [%] | Remaining percentage (%) 180 min [5] [%] | Remaining percentage (%) 240 min [5] [%] | half-life at 5 μM [5] [h] | Structure (SMILES) | Selectivity (fold number of mutant vs. wild type) [1] [fold] | Selectivity (fold number of mutant vs. wild type) [2] [fold] | Day 0 Tumor volume (mm^3) Vaverage ± SEM [4] [mm^3] | Day 21 Tumor volume (mm^3) Vaverage ± SEM [4] [mm^3] | Tumor inhibition rate TGI (%) [4] [%] | Tumor regression [4] | Day 0 Body weight (g) Waverage ± SEM [4] [g]
< 1000 | 0.68 | 0.49 | 4810 | 100.00 | 92.80 | 76.27 | 58.94 | 39.27 | 25.75 | 2.03 | [2H]C([2H])([2H])c1cccc2cccc(N3CCc4c(nc(OC[C@@H]5CCCN5C)nc4N4CCN(C(=O)C=C)[C@@H](CC#N)C4)C3)c12 [Compound 1, 2-((S)-1-acryloyl-4-(7-(8-(methyl-d3)naphthalen-1-yl)-2-(((S)-1-methylpyrrolidin-2-yl)methoxy)-5,6,7,8-tetrahydropyrido[3,4-d]pyrimidin-4-yl)piperazin-2-yl)acetonitrile] | 7074 | 9816 | 150 ± 10 | 153 ± 14 | 99.5 | 3/8 | 22.5 ± 0.5
< 1000 | 0.26 | 0.51 | 2370 | 100.00 | 90.36 | 77.31 | 57.19 | 36.19 | 27.49 | 2.06 | [2H]C([2H])([2H])N1CCC[C@H]1COc1nc2c(c(N3CCN(C(=O)C=C)[C@@H](CC#N)C3)n1)CCN(c1cccc3cccc(C)c13)C2 [Compound 42, 2-((S)-1-acryloyl-4-(7-(8-methylnaphthalen-1-yl)-2-(((S)-1-(methyl-d3)pyrrolidin-2-yl)methoxy)-5,6,7,8-tetrahydropyrido[3,4-d]pyrimidin-4-yl)piperazin-2-yl)acetonitrile] | 9115 | 4647 | 150 ± 9 | 151 ± 18 | 99.8 | 4/8 | 22.8 ± 0.6
